# Assay results published in patent publication US20230406838A1, “MUTANT SELECTIVE EGFR INHIBITORS AND METHODS OF USE THEREOF” (Dana-Farber Cancer Institute, Inc., priority 2020, published 2023).
# pIC50: −log10 of the molar value.
# Legend:
# EGFR L858R/T790M = EGFR L858R/T790M (Homo sapiens, UniProt P00533, L858R/T790M); assay: HTRF-based EGFR biochemical assay, L858R/T790M; conditions: 100 μM ATP, enzyme 0.02 nM
# Protocol: (§1) EGFR biochemical activity measurements were carried out using the homogeneous time-resolved fluorescence (HTRF) assay (Cisbio). Inhibitors and DMSO normalizations were first dispensed to empty black low-volume 384-well plates (Corning) with D300 digital liquid dispenser (HP). All reactions were carried out at room temperature and solutions were added to plates with a Multidrop Combi Reagent Dispenser (ThermoFisher). The reaction mixture (10 μL final volume) contained 1 μM tyrosine kinase peptide-biotin substrate and mutant EGFR in a reaction buffer (50 mM HEPES pH 7.0, 5 mM MgCl2, 1 mM MnCl2, 0.01% BSA, 2 mM TCEP, 0.1 mM NaVO4). […] Enzyme reaction solution (2× concentrations, 5 μL) was added to 384-well plates containing compounds and incubated for 30 mins. Enzyme reactions were initiated with the addition of 5 μL of ATP to a final concentration of 100 μM and reacted for 20 mins.
# EGFR L858R = EGFR L858R (Homo sapiens, UniProt P00533, L858R); assay: HTRF-based EGFR biochemical assay, L858R; conditions: 100 μM ATP, enzyme 0.1 nM
# Protocol: as §1
# EGFR WT = EGFR WT (Homo sapiens, UniProt P00533); assay: HTRF-based EGFR biochemical assay, WT; conditions: 100 μM ATP, enzyme 5 nM
# EGFR L858R/T790M/C797S = EGFR L858R/T790M/C797S (Homo sapiens, UniProt P00533, C797S/L858R/T790M); assay: HTRF-based EGFR biochemical assay, L858R/T790M/C797S; conditions: 100 μM ATP, enzyme 0.02 nM
# Protocol: as §1
# Chain of EGFR L858R (P00533 25-1210 L858R): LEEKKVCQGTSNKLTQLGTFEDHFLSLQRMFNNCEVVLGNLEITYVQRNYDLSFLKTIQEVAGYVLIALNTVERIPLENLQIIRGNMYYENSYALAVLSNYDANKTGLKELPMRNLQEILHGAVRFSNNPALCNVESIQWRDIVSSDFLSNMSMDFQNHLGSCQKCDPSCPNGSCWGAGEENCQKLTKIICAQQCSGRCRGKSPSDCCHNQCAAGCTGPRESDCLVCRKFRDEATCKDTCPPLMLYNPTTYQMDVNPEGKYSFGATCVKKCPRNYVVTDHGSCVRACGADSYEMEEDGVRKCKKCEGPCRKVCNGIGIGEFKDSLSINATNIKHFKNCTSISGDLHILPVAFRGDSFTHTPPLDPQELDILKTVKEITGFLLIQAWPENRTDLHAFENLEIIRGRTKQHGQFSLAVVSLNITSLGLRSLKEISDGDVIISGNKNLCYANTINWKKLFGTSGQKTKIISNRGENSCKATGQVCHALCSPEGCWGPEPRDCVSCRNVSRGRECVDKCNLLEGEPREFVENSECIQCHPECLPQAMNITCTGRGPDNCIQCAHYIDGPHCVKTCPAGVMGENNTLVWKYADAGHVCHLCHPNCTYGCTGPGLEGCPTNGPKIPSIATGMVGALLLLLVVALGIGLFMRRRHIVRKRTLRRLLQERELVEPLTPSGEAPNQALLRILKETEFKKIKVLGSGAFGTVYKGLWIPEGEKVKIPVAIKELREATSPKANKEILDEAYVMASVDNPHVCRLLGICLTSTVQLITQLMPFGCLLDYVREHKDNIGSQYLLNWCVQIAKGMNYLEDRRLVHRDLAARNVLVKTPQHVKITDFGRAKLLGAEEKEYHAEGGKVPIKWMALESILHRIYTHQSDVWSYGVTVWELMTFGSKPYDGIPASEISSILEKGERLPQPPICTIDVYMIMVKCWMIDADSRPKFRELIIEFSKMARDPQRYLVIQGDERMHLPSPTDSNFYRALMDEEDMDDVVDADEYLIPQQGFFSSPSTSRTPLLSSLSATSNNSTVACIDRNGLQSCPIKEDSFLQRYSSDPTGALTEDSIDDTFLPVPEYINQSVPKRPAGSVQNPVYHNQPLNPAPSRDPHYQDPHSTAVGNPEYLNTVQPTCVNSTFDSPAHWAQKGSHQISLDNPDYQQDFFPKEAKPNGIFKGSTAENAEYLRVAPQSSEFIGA
# Chain of EGFR L858R/T790M (P00533 25-1210 T790M/L858R): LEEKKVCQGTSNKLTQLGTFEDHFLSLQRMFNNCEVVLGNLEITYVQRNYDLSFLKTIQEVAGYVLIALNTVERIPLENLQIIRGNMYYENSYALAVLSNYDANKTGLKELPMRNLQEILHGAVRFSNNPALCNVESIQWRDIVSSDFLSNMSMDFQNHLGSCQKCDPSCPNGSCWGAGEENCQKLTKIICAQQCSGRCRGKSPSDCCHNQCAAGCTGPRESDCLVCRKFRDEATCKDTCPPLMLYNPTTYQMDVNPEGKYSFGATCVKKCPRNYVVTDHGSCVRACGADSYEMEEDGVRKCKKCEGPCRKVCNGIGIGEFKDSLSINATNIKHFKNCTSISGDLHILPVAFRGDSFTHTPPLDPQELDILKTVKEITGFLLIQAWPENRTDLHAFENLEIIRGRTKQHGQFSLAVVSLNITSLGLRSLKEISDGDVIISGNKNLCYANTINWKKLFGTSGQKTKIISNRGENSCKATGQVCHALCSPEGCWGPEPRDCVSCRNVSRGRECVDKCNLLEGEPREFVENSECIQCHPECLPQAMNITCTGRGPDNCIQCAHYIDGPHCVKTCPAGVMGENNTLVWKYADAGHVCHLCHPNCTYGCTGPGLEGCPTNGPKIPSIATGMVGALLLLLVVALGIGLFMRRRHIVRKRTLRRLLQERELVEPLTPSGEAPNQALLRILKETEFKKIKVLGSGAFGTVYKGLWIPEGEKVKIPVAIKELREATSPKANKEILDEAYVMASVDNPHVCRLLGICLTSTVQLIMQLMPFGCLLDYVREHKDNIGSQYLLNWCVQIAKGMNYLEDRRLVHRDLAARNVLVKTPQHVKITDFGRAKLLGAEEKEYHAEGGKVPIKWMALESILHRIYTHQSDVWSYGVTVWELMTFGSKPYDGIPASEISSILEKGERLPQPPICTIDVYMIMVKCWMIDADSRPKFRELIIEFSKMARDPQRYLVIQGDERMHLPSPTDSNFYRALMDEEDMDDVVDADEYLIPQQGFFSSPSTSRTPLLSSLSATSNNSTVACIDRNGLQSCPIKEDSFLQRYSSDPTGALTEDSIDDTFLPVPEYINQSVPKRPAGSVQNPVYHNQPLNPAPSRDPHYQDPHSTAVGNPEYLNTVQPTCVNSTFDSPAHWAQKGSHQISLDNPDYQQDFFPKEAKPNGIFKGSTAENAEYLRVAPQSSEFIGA
# Chain of EGFR L858R/T790M/C797S (P00533 25-1210 T790M/C797S/L858R): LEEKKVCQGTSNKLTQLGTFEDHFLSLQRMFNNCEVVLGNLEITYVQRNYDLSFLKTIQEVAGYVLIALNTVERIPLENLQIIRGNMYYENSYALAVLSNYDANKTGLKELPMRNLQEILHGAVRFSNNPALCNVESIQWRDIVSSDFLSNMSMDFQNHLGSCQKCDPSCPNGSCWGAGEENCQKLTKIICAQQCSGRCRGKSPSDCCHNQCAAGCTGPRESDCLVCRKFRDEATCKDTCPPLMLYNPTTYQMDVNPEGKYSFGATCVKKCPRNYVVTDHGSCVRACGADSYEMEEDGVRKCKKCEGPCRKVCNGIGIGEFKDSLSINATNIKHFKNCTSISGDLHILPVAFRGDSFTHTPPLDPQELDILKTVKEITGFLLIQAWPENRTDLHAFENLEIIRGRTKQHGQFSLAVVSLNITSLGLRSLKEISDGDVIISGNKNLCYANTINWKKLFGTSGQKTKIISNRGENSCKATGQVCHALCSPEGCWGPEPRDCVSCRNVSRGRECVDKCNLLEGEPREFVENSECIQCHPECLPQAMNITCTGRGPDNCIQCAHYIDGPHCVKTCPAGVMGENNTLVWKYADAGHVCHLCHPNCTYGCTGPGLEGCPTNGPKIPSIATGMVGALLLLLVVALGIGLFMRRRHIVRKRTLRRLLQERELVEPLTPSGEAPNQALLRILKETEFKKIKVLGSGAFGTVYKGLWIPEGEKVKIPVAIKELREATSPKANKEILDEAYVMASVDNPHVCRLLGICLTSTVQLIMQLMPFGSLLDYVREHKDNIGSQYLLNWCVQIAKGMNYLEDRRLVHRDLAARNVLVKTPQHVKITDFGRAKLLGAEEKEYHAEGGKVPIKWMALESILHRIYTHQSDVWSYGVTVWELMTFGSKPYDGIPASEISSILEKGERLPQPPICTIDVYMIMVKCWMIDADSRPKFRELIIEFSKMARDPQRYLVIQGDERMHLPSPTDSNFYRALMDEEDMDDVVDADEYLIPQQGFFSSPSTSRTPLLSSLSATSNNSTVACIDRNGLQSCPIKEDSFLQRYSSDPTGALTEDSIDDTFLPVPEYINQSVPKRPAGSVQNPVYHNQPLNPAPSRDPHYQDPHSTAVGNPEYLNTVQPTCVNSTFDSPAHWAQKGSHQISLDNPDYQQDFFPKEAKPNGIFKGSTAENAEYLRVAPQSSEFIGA
# Chain of EGFR WT (P00533 25-1210): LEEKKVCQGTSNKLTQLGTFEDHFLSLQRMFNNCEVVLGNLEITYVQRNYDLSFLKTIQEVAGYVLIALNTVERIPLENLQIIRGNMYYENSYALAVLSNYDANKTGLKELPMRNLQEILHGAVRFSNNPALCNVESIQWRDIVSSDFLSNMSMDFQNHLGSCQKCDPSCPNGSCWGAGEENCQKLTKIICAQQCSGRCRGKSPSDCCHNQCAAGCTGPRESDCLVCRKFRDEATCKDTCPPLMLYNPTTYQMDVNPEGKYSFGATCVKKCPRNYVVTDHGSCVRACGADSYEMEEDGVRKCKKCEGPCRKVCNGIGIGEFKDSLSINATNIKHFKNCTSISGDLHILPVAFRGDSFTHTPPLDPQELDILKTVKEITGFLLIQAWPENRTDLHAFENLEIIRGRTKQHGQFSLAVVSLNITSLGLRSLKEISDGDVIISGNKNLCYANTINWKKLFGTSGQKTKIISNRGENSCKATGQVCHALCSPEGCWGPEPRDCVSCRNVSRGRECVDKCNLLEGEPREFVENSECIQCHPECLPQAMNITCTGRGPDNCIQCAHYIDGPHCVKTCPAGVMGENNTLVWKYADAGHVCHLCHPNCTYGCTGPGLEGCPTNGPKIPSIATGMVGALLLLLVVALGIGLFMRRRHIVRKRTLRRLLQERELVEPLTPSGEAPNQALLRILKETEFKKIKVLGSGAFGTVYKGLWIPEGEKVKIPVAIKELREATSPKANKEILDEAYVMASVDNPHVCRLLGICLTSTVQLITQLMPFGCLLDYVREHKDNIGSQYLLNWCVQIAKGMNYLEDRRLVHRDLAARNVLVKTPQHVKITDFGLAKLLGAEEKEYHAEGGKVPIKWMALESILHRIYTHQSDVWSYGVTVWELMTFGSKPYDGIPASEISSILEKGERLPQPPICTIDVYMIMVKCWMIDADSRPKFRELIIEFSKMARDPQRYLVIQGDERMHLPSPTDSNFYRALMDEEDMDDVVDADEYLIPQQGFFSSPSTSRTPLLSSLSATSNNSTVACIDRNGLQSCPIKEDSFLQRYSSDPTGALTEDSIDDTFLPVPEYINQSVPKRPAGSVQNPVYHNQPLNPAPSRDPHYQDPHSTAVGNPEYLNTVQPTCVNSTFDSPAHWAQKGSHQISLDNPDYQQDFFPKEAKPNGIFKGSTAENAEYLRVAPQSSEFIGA
Compound,pIC50 (EGFR L858R/T790M),pIC50 (EGFR L858R),pIC50 (EGFR WT),pIC50 (EGFR L858R/T790M/C797S)
"CSc1nc(-c2cccc(NC(=O)C3CCCC3)c2)c(-c2ccnc(NC(C)=O)c2)[nH]1 [Compound 001, N-(3-(5-(2-acetamidopyridin-4-yl)-2-(methylthio)-1H-imidazol-4-yl)phenyl)cyclopentane-carboxamide]",4.78,5.38,–,–
"CSc1nc(-c2cccc(NC(=O)C3CC3)c2)c(-c2ccnc(NC(C)=O)c2)[nH]1 [Compound 003, N-(3-(5-(2-acetamidopyridin-4-yl)-2-(methylthio)-1H-imidazol-4-yl)phenyl)cyclopropane-carboxamide]",4.84,5.37,–,–
"CSc1nc(-c2cccc(NC(=O)Nc3ccccc3)c2)c(-c2ccnc(NC(C)=O)c2)[nH]1 [Compound 005, N-(4-(2-(methylthio)-4-(3-(3-phenylureido)phenyl)-1H-imidazol-5-yl)pyridin-2-yl)acetamide]",5.43,5.44,–,–
"CSc1nc(-c2cc(NC(=O)c3c(F)cccc3F)cs2)c(-c2ccnc(NC(C)=O)c2)[nH]1 [Compound 011, N-(5-(5-(2-acetamidopyridin-4-yl)-2-(methylthio)-1H-imidazol-4-yl)thiophen-3-yl)-2,6-difluorobenzamide]",< 4.00,< 4.00,–,–
"CSc1nc(-c2cccc(NC(=O)Nc3ccc(F)cc3)c2)c(-c2ccnc(NC(C)=O)c2)[nH]1 [Compound 017, N-(4-(4-(3-(3-(4-fluorophenyl)ureido)phenyl)-2-(methylthio)-1H-imidazol-5-yl)pyridin-2-yl)acetamide]",5.28,5.38,–,–
"COc1cccc(C(=O)Nc2ccccc2-c2nc(SC)[nH]c2-c2ccnc(NC(C)=O)c2)c1 [Compound 025, N-(2-(5-(2-acetamidopyridin-4-yl)-2-(methylthio)-1H-imidazol-4-yl)phenyl)-3-methoxybenzamide]",< 4.00,< 4.00,–,–
"CSc1nc(-c2ccccc2NC(=O)c2cc(C)cs2)c(-c2ccnc(NC(C)=O)c2)[nH]1 [Compound 026, N-(2-(5-(2-acetamidopyridin-4-yl)-2-(methylthio)-1H-imidazol-4-yl)phenyl)-4-methyl-thiophene-2-carboxamide]",< 4.00,< 4.00,–,–
"CSc1nc(-c2ccccc2NC(=O)c2ccco2)c(-c2ccnc(NC(C)=O)c2)[nH]1 [Compound 027, N-(2-(5-(2-acetamidopyridin-4-yl)-2-(methylthio)-1H-imidazol-4-yl)phenyl)furan-2-carboxamide]",< 4.00,< 4.00,–,–
"CSc1nc(-c2ccccc2NC(=O)c2ccccc2O)c(-c2ccnc(NC(C)=O)c2)[nH]1 [Compound 032, N-(2-(5-(2-acetamidopyridin-4-yl)-2-(methylthio)-1H-imidazol-4-yl)phenyl)-2-hydroxybenzamide]",< 4.00,< 4.00,–,–
"CSc1nc(-c2cccc(NC(=O)CCc3ccccc3)c2)c(-c2ccnc(NC(C)=O)c2)[nH]1 [Compound 037, N-(3-(5-(2-acetamidopyridin-4-yl)-2-(methylthio)-1H-imidazol-4-yl)phenyl)-3-phenylpropanamide]",5.10,5.73,–,–
"CSc1nc(-c2ccnc(NC(C)=O)c2)c(-c2cccc(NC(=O)c3c(F)ccc(O)c3CN3Cc4ccccc4C3=O)c2)n1C [Compound 059, N-(3-(4-(2-acetamidopyridin-4-yl)-1-methyl-2-(methylthio)-1H-imidazol-5-yl)phenyl)-6-fluoro-3-hydroxy-2-((1-oxoisoindolin-2-yl)methyl)benzamide]",< 4.00,5.51,< 4.00,< 4.00
CSc1nc(-c2cccc(NC(=O)c3cc(O)ccc3F)c2)c[nH]1 [Compound 060],< 4.00,–,< 4.00,< 4.00

# More lines, now with the values ahead:
pIC50 (EGFR L858R/T790M),pIC50 (EGFR L858R),pIC50 (EGFR WT),pIC50 (EGFR L858R/T790M/C797S),Compound
5.62,7.49,7.82,–,"CSc1nc(-c2cccc(NC(=O)c3c(F)cccc3F)c2)c(-c2ccnc(Nc3ccccc3)c2)[nH]1 [Compound 010, 2,6-difluoro-N-(3-(2-(methylthio)-5-(2-(phenylamino)pyridin-4-yl)-1H-imidazol-4-yl)phenyl)benzamide]"
< 4.00,< 4.00,–,–,"CSc1nc(-c2cc(NC(=O)Cc3ccccc3)cs2)c(-c2ccnc(NC(C)=O)c2)[nH]1 [Compound 012, N-(5-(5-(2-acetamidopyridin-4-yl)-2-(methylthio)-1H-imidazol-4-yl)thiophen-3-yl)-2-phenylacetamide]"
5.23,5.19,–,–,"CSc1nc(-c2cccc(NC(=O)Nc3ccc(Br)cc3)c2)c(-c2ccnc(NC(C)=O)c2)[nH]1 [Compound 015, N-(4-(4-(3-(3-(4-bromophenyl)ureido)phenyl)-2-(methylthio)-1H-imidazol-5-yl)pyridin-2-yl)acetamide]"
6.07,6.29,–,–,"CSc1nc(-c2cccc(NC(=O)Nc3cccc(C(F)(F)F)c3)c2)c(-c2ccnc(NC(C)=O)c2)[nH]1 [Compound 016, N-(4(2-(methylthio)-4-(3-(3-(3-(trifluoromethyl)phenyl)ureido)phenyl)-1H-imidazol-5-yl)pyridin-2-yl)acetamide]"
5.66,5.80,–,–,CSc1nc(-c2cccc(NC(=O)Nc3ccc(F)c(Cl)c3)c2)c(-c2ccnc(NC(C)=O)c2)[nH]1 [Compound 018]
< 4.00,< 4.00,–,–,"CSc1nc(-c2ccccc2NC(=O)Nc2ccc(Br)cc2)c(-c2ccnc(NC(C)=O)c2)[nH]1 [Compound 019, N-(4-(4-(2(3-(4-bromophenyl)ureido)phenyl)-2-(methylthio)-1H-imidazol-5-yl)pyridin-2-yl)acetamide]"
< 4.00,< 4.00,–,–,"CSc1nc(-c2cccc(NC(=O)Nc3ccccc3)c2)c(-c2ccnc(NC(C)=O)c2)[nH]1 [Compound 020, N-(4-(2-(methylthio)-4-(3-(3-phenylureido)phenyl)-1H-imidazol-5-yl)pyridin-2-yl)acetamide]"
< 4.00,< 4.00,–,–,"CSc1nc(-c2ccccc2NC(=O)C2CCCC2)c(-c2ccnc(NC(C)=O)c2)[nH]1 [Compound 022, N-(2(5-(2-acetamidopyridin-4-yl)-2-(methylthio)-1H-imidazol-4-yl)phenyl)cyclopentane-carboxamide]"
< 4.00,< 4.00,–,–,"CSc1nc(-c2ccccc2NC(=O)c2cccc3[nH]ccc23)c(-c2ccnc(NC(C)=O)c2)[nH]1 [Compound 023, N-(2-(5-(2-acetamidopyridin-4-yl)-2-(methylthio)-1H-imidazol-4-yl)phenyl)-1H-indole-4-carboxamide]"
< 4.00,< 4.00,–,–,"CSc1nc(-c2ccccc2NC(=O)CCc2ccccc2)c(-c2ccnc(NC(C)=O)c2)[nH]1 [Compound 033, N-(2(5-(2-acetamidopyridin-4-yl)-2-(methylthio)-1H-Imidazol-4-yl)phenyl)-3-phenylpropanamide]"
5.72,6.01,–,–,"CSc1nc(-c2ccc(F)c(NC(=O)Cc3c(F)cccc3F)c2)c(-c2ccnc(NC(C)=O)c2)[nH]1 [Compound 052, N-(5-(5-(2-acetamidopyridin-4-yl)-2-(methylthio)-1H-Imidazol-4-yl)-2-fluorophenyl)-2-(2,6-difluorophenyl)acetamide]"
6.10,5.89,–,–,"CSc1nc(-c2cccc(NC(=O)Cc3c(F)cccc3F)c2)c(-c2ccnc(NC(C)=O)c2)[nH]1 [Compound 053, N-(3-(5-(2-acetamidopyridin-4-yl)-2-(methylthio)-1H-Imidazol-4-yl)phenyl)-2-(2,6-difluorophenyl)acetamide]"
< 4.00,< 4.00,–,–,"CSc1nc(-c2cccc3c2CCC3NC(=O)c2c(F)cccc2F)c(-c2ccnc(NC(C)=O)c2)[nH]1 (centres unmarked) [Compound 055, N-(4-(5-(2-acetamidopyridin-4-yl)-2-(methylthio)-1H-imidazol-4-yl)-2,3-dihydro-1H-inden-1-yl)-2,6-difluorobenzamide]"
< 4.00,< 4.00,–,–,"CSc1nc(-c2cccc3c2CCC3NC(=O)c2cccc3[nH]ccc23)c(-c2ccnc(NC(C)=O)c2)[nH]1 (centres unmarked) [Compound 056, N-(4(5-(2-acetamidopyridin-4-yl)-2-(methylthio)-1H-imidazol-4-yl)-2,3-dihydro-1H-inden-1-yl)-1H-indole-4-carboxamide]"
< 4.00,< 4.00,–,–,"CSc1nc(-c2cccc3c2CCC3NC(=O)c2cc(F)cc(F)c2)c(-c2ccnc(NC(C)=O)c2)[nH]1 (centres unmarked) [Compound 057, N-(4-(5-(2-acetamidopyridin-4-yl)-2-(methylthio)-1H-imidazol-4-yl)-2,3-dihydro-1H-inden-1-yl)-3,5-difluorobenzamide]"
< 4.00,< 4.00,< 4.00,< 4.00,"CSc1nc(-c2cccc(NC(=O)c3c(F)ccc(O)c3CN3Cc4ccccc4C3=O)c2)c[nH]1 [Compound 058, 6-fluoro-3-hydroxy-N-(3-(2-(methylthio)-1H-imidazol-4-yl)phenyl)-2-((1-oxoisoindolin-2-yl)methyl)benzamide]"
